Measured values as given in patent US6380384B1, “1,2-dihydro-2-oxoquinoline derivatives” (Taisho Pharmaceutical Co., Ltd., priority 1997, dated 2002).
pIC50: −log10 of the molar value.

Molecular target: T1, mitochondrial diazepam binding inhibitor receptor (MDR) (Rattus norvegicus, UniProt P16257)
T1 construct: Crude mitochondria fractions prepared from rat cerebral cortex were used as a receptor sample; from tissue; host or cells: rat cerebral cortex, crude mitochondria fraction
Experiment: MDR receptor binding assay ([3H]PK11195 displacement, crude mitochondria fractions from rat cerebral cortex)
Conditions: 50% inhibition of [3H]PK11195 (2 nM) binding; rat cerebral cortex crude mitochondria fraction, 4° C., 90 minutes
Experimental: Experiment [MDR Receptor Binding Assay]
Crude mitochondria fractions prepared from rat cerebral cortex were used as a receptor sample, and [^3H]PK11195 was used as a [^3H]-labeled ligand.
A binding assay using the [^3H]-labeled ligand was carried out according to the following method as described in Journal of Pharmacology and Experimental Therapeutics, 262, 971(1992).
Preparation of Receptor Sample: Rat cerebral cortex was homogenized using a Teflon-coated homogenizer in a 10 mM HEPES buffer (pH 7.4) containing 0.32 M sucrose in ten volumes of the wet weight. The homogenate was centrifuged at 900×g for 10 minutes, and the resulting supernatant was centrifuged at 9,000×g for 10 minutes. The precipitate was suspended in a HEPES buffer to give a protein concentration of 1 mg/ml, and centrifuged at 12,000×g for 10 minutes. The resulting precipitate was suspended in a 50 mM HEPES buffer (pH 7.4) to give a crude mitochondria fraction.
MDR Binding Assay:. Mitochondria sample (1.0 mg protein/ml), [^3H]PK11195 (2 nM) and the test drug were reacted at 4° C. for 90 minutes.
After completion of the reaction, the reaction mixture was filtered with suction through a glass filter (GF/B) treated with 0.3% polyethyleneimine, and the radioactivity on the filter was measured by a liquid scintillation spectrometer.
The binding at the reaction in the presence of 10 μM PK11195 was defined as non-specific binding of [^3H]PK11195, and the difference between total binding and non-specific binding was defined as specific binding.

T1 sequence (P16257 whole entry): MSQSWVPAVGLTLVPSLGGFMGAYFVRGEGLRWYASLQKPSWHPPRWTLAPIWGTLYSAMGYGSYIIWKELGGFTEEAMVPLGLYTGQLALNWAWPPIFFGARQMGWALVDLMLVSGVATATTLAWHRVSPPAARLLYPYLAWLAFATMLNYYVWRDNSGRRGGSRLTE

| SMILES | pIC50 |
| --- | --- |
| CCCCCCN(CCCCCC)C(=O)c1cc2ccccc2n(CCc2ccccc2)c1=O [Compound 21] | 8.18 |
| CCCCCCN(CCCCCC)C(=O)c1cc2ccccc2n(Cc2cccnc2)c1=O [Compound 19, N,N-dihexyl-1-(3-picolyl)-1,2-dihydro-2-oxoquinoline-3-carboxamide] | 9.43 |
| CCCCCCN(CCCCCC)C(=O)c1cc2ccc(Cl)cc2n(Cc2ccccc2)c1=O [Compound 23] | 9.88 |
| CCCN(CCC)C(=O)c1cc2ccccc2n(Cc2ccccc2)c1=O [Compound 04] | 8.77 |
| CCCCCCCCCCN(CCCCCCCCCC)C(=O)c1cc2ccccc2n(Cc2ccccc2)c1=O [Compound 06] | 7.27 |
| CCCCCCN(CCCCCC)C(=O)c1cc2ccccc2n(Cc2ccccn2)c1=O [Compound 18] | 9.39 |
| CCCCCCN(CCCCCC)C(=O)c1cc2ccccc2n(Cc2ccncc2)c1=O [Compound 20] | 9.72 |
| CCCCCCN(CCCCCC)C(=O)c1cc2ccccc2n(Cc2ccccc2)c1=O [Compound 05] | 9.80 |
